# Assay results: patent US9040507B2, “Method for treating inflammatory conditions” (Novelmed Therapeutics, Inc., priority 2008, dated 2015)
# Entries after “also recorded” stand apart in the source; their conditions may differ.
# Experiments:
# [1] = tested on: mouse collagen-induced arthritis (CIA); test: Mouse collagen-induced arthritis (CIA) model; format: in vivo, DBA/J1 mice; conditions: dosing from day 18
# Method: Male DBA/J1 mice (7-9 weeks old from Jackson Labs, Bar Harbor, Me., USA) were used. The CIA study using mice of same age, strain and source was performed at Boulder BioPATH Inc as described below. Male DBA/J1 mice were shaved at the base of the tail and injected with 0.1 ml emulsion consisting of a 1 to 1 (1 mg/l mg) mixture of type II chicken collagen with Mycobacterium butyricum (Difco) as an adjuvant. Three weeks later, the mice were boosted with another 0.1 ml injection of emulsion at the base of the tail to induce disease. Dosing started at day 18 while the last boost to induce the disease was at day 21. The mice were scored in a blinded manner twice weekly for 3 weeks for signs of arthritis in each paw according to the following scale: clinical signs were evaluated using the following scale: 0=normal; 1=one joint affected or mild diffuse erythema and swelling; 2=two joints affected or mild diffuse erythema and swelling; 3=three joints affected or mild diffuse erythema and swelling; 4=four joint affected or marked diffuse erythema and swelling; and 5=severe erythema and severe swelling. Upon study completion (day 28), mice were killed with CO2.
# [2] = tested on: rat adjuvant induced arthritis (AIA); conditions: in vivo, ip, 5 mg/kg/day
# [3] = tested on: rat adjuvant induced arthritis (AIA); test: Prophylactic model of rat adjuvant induced arthritis (AIA); conditions: for joint damage (radiographs; CT scan at 2.5 mg/kg): 2.5 mg/kg/day and 500 μg/kg/day IP; for paw inflammation (paw volume), dose effect: 2.5 mg/kg/day and 500 μg/kg/day IP from day 10, left and right paw; for joint histology (H&E staining): limb at study end
# [4] = tested on: rat adjuvant induced arthritis (AIA), established disease; conditions: male rats, 2.5 mg/kg IP every other day from day 16 to day 40, left and right paw; listed as TC 5, 2.5 mg/kg
# [5] = male rats, 500 μg/kg/day IP from day 10
# [6] = male rats, 5 mg/kg/day IP from day 10 for 14 days, right paw, 5 mg/kg/day
# [7] = male rats, 10 mg/kg/day IP from day 10 for 14 days, left and right paw, 10 mg/kg/day
# [8] = male rats, 10 mg/kg/day IP, 10 mg/kg/day
# [9] = male rats, 10 mg/kg/day IP, limbs at study end, 10 mg/kg/day
smiles,measurement,setting,value
"COc1ccc(C(Cl)=C(c2ccc(OC)cc2)c2ccc(OC)cc2)cc1 [TC10, 1,1′,1″-(2-chloroethene-1,1,2-triyl)tris(4-methoxybenzene)]",clinical scoring of the paws (clinical signs of arthritis),"[1]; male mice, 25, 2.5 and 0.25 mg/kg IP",All three doses inhibited clinical signs of the disease; also recorded: significant prevention of arthritis with inhibition greater than ENBREL at all tested doses
same,clinical scoring of the paws (clinical signs of arthritis),"[1]; male mice, 25, 2.5 and 0.25 mg/kg IP, listed as chlorotrianisene",can reduce paw inflammation
same,weight loss,[2],near negligible
same,joint damage (radiographs),"[3]; female rats, 2.5 and 0.5 mg/kg/day IP",effective in preserving the joint damage at both concentrations tested; also recorded: able to prevent significant joint damage compared to the disease control
same,paw inflammation (paw volume),"[3]; female rats, 2.5 and 0.5 mg/kg/day IP from day 10 for 12 days, listed as TC 10",inhibited at both doses
same,paw inflammation (paw volume),"[3]; female rats, 5 and 2.5 mg/kg/day oral",prevented paw inflammation; also recorded: significant reduction in paw inflammation
same,joint damage (radiographs),"[3]; female rats, oral, 5 mg/kg/day",effective in female rates in preserving joint damage
same,paw inflammation (paw volume),[3]; [5],also reduced paw inflammation; also recorded: comparable results to ENBREL
same,paw inflammation (paw volume),"[3]; male rats, 2.5 mg/kg/day IP from day 10, 2.5 mg/kg/day",maximal effect better than ENBREL with nearly complete inhibition of paw inflammation; also recorded: near complete prevention of arthritis bringing paw inflammation near the non-disease control; also recorded: maximum inhibition observed at 2.5 mg/kg/day dose bringing inflammation down to the non-disease control level
same,joint damage (radiographs; CT scan at 2.5 mg/kg),[3]; male rats,effective is preserving the joint damage at both concentrations; also recorded: shows preservation of the joint damage; also recorded: able to prevent significant joint damage at both doses 2.5 mg and 0.5 mg compared to the disease control in a dose dependent manner; also recorded: Joint damage was almost completely prevented with no joint damage
same,"paw inflammation (paw volume), dose effect",[3]; male rats,can prevent development and progression of rat adjuvant induced arthritis dose dependently with maximum effect observed at 2.5 dose
same,paw inflammation (paw volume),[3]; [6],reduced paw inflammation to control levels similar to those observed for ENBREL
same,paw inflammation (paw volume),"[3]; male rats, 5 mg/kg/day IP from day 10 for 14 days, right paw, listed as NM2026, 5 mg/kg/day",able to inhibit paw inflammation similar to the effects of ENBREL
same,paw inflammation (paw volume),"[3]; male rats, 5 mg/kg/day oral gavage from day 10, 5 mg/kg/day",can prevent development and progression of rat adjuvant induced arthritis; also recorded: not as effective as the IP dosing
same,paw inflammation (paw volume),"[3]; male rats, 5 mg/kg/day oral gavage from day 10, listed as TC 10, 5 mg/kg/day",inhibited paw inflammation to ENBREL controls
same,"joint damage (radiographs, CT scans)","[3]; male rats, 5 mg/kg/day oral gavage, 5 mg/kg/day",effectively preserves the joint damage; also recorded: able to prevent significant joint damage compared to the disease control at 5 mg/kg dose tested; also recorded: near complete prevention of joint destruction at 5 mg/kg/day compared to the diseased control
same,paw inflammation (paw volume),[3]; [7],can prevent development and progression of rat adjuvant induced arthritis comparable to the effects of ENBREL; also recorded: able to inhibit paw inflammation similar to the effects of ENBREL
same,paw inflammation (paw volume),"[3]; male rats, 10 mg/kg/day IP from day 10 for 14 days, left and right paw, listed as TC 10, 10 mg/kg/day",reduced paw inflammation to control levels similar to those observed for ENBREL
same,joint histology (H&E staining),[3]; [8],"minimal inflammation, reduced bone proliferation, preservation of the cartilage, and preservation of the synovial membrane; also recorded: significant preservation of the synovium membrane (white space), significant preservation of the cartilage (space between the 2 blue lines), and minor bone proliferation"
same,"joint damage (radiographs, CT scans)",[3]; [9],prevents joint damage similar to those from ENBREL treated group; also recorded: able to prevent significant joint damage compared to the disease control; also recorded: significant reduction in bone damage in treated animals compared to diseased animals
"CC/C(=C(\c1ccccc1)c1ccc(OCCN(C)C)cc1)c1ccccc1 [Tamoxifen, (Z)-2-[4-(1,2-diphenylbut-1-enyl)phenoxy]-N,N-dimethyl-ethanamine]",paw inflammation (paw volume),[3]; [6],reduced paw inflammation to control levels similar to those observed for ENBREL
same,paw inflammation (paw volume),"[3]; male rats, 5 mg/kg/day IP from day 10 for 14 days, right paw, listed as tamoxifen, 5 mg/kg/day",can reduce paw inflammation
"c1ccc(-c2ccc(C(c3ccccc3)n3ccnc3)cc2)cc1 (stereo not drawn) [TC5, 1-[phenyl(4-phenylphenyl)methyl]-1H-imidazole]",clinical scoring of the paws (clinical signs of arthritis),"[1]; male mice, 2.5 and 0.25 mg/kg IP",significant prevention of arthritis with inhibition comparable to ENBREL
same,clinical scoring of the paws (clinical signs of arthritis),"[1]; male mice, 2.5 and 0.25 mg/kg IP, listed as TC 5",inhibited clinical signs of the disease comparable to ENBREL treated groups
same,clinical scoring of the paws (clinical signs of arthritis),"[1]; male mice, 2.5 and 0.25 mg/kg IP, listed as bifonazole",can reduce paw inflammation
same,paw inflammation (paw volume),[4],halted the progression of the disease
same,paw inflammation (paw volume),[3]; [5],maximum inhibition observed at the 500 μg/kg/day
same,paw inflammation (paw volume),"[3]; male rats, 500 μg/kg/day IP from day 10, listed as TC 5",also reduced paw inflammation
same,paw inflammation (paw volume),"[3]; male rats, 2.5 mg/kg/day IP from day 10",demonstrated maximal effect similar to ENBREL
same,joint damage (radiographs; CT scan at 2.5 mg/kg),[3]; male rats,effective is preserving the joint damage at both concentrations; also recorded: able to prevent significant joint damage compared to the disease control in a dose dependent manner
same,"paw inflammation (paw volume), dose effect",[3]; male rats,can prevent development and progression of rat adjuvant induced arthritis dose dependently
same,paw inflammation (paw volume),[3]; [7],reduced paw inflammation to control levels similar to those observed for ENBREL
same,paw inflammation (paw volume),"[3]; male rats, 10 mg/kg/day IP from day 10 for 14 days, left and right paw, listed as bifonazole, 10 mg/kg/day",can reduce paw inflammation
same,joint histology (H&E staining),[3]; [8],"minimal inflammation, reduced bone proliferation, preservation of the cartilage, and preservation of the synovial membrane; also recorded: significant preservation of the synovium membrane (white space), significant preservation of the cartilage (space between the 2 blue lines), and minor bone proliferation"
same,"joint damage (radiographs, CT scans)",[3]; [9],prevents joint damage similar to those from ENBREL treated group; also recorded: able to prevent significant joint damage compared to the disease control; also recorded: significant reduction in bone damage in treated animals compared to diseased animals
same,"joint damage (radiographs, CT scans)","[3]; male rats, 10 mg/kg/day IP, limbs at study end, listed as bifonazole, 10 mg/kg/day",can reduce paw inflammation (FIGS. 1-2) and ankle damage
same,joint damage (radiographs; CT scan of 500 μg/Kg oral group),"[3]; male rats, 5, 2.5 and 0.5 mg/kg/day oral gavage",effective in preserving the joint damage at all three concentrations tested; also recorded: significant reduction in bone damage in treated animals compared to diseased animals
same,paw inflammation (paw volume),"[3]; male rats, 5, 2.5 and 0.5 mg/kg/day oral gavage from day 10",not as effective as the IP dosing
same,paw inflammation (paw volume),"[3]; male rats, 5, 2.5 and 0.5 mg/kg/day oral gavage from day 10, listed as TC 5",dose dependent with the highest dose demonstrated maximal effect
